Laboratory results as given in patent US20230257415A1, “COMPOUNDS FOR TREATING CNS DISORDERS” (SAGE THERAPEUTICS, INC., priority 2019, published 2023).

Biological target: GABAA receptor
Experiment: [35S]-TBPS binding assay, rat brain cortical membranes, in the presence of GABA
Conditions: inhibition of 3 nM [35S]-TBPS binding, 5 mM GABA, 90 min, room temp
Description: [35S]-t-Butylbicyclophosphorothionate (TBPS) binding assays using rat brain cortical membranes in the presence of 5 mM GABA has been described (Gee et al, J. Pharmacol. Exp. Ther. 1987, 241, 346-353; Hawkinson et al, Mol. Pharmacol. 1994, 46, 977-985; Lewin, A.H et al., Mol. Pharmacol. 1989, 35, 189-194).
Briefly, cortices are rapidly removed following decapitation of carbon dioxide-anesthetized Sprague-Dawley rats (200-250 g). The cortices are homogenized in 10 volumes of ice-cold 0.32 M sucrose using a glass/teflon homogenizer and centrifuged at 1500 x g for 10 min at 4° C. The resultant supernatants are centrifuged at 10,000 x g for 20 min at 4° C. to obtain the P2 pellets. The P2 pellets are resuspended in 200 mM NaCl/50 mM Na-K phosphate pH 7.4 buffer and centrifuged at 10,000 x g for 10 min at 4° C. This washing procedure is repeated twice and the pellets are resuspended in 10 volumes of buffer. Aliquots ([…]) of the membrane suspensions are incubated with 3 nM [^35S]-TBPS and […] aliquots of test drug dissolved in dimethyl sulfoxide (DMSO) (final 0.5%) in the presence of 5 mM GABA. The incubation is brought to a final volume of 1.0 mL with buffer. […] Following a 90 min incubation at room temp, the assays are terminated by filtration through glass fiber filters (Schleicher and Schuell No. 32) using a cell harvester (Brandel) and rinsed three times with ice-cold buffer. Filter bound radioactivity is measured by liquid scintillation spectrometry. Non-linear curve fitting of the overall data for each drug averaged for each concentration is done using Prism (GraphPad). […] The concentration of test compound producing 50% inhibition (IC50) of specific binding and the maximal extent of inhibition (Imax) are determined for the individual experiments with the same model used for the overall data and then the means ± SEM.s of the individual experiments are calculated.
Various compounds are or can be screened to determine their potential as modulators of [^35S]-TBPS binding in vitro. These assays are or can be performed in accordance with the above.

Structure (SMILES)	IC50 [nM]
C[C@H](Cn1cc(C#N)cn1)[C@H]1CCC[C@H]2[C@@H]3CC[C@@H]4C[C@](C)(O)CC[C@@H]4[C@H]3CC[C@]12C [Example 1, 1-((S)-2-((1R,4aS,4bR,6aR,8R,10aS,10bR,12aS)-8-hydroxy-8,12a-dimethyloctadecahydrochrysen-1-yl)propyl)-1H-pyrazole-4-carbonitrile]	< 100
COC[C@@]1(O)CC[C@H]2[C@H](CC[C@@H]3[C@@H]2CC[C@]2(C)[C@@H]([C@H](C)Cn4cc(C#N)cn4)CCC[C@@H]32)C1 [Example 2, 1-((S)-2-((1R,4aS,4bR,6aR,8R,10aS,10bR,12aS)-8-hydroxy-8-(methoxymethyl)-12a-methyloctadecahydrochrysen-1-yl)propyl)-1H-pyrazole-4-carbonitrile]	< 100
COC[C@@]1(O)CC[C@H]2[C@H](CC[C@@H]3[C@@H]2CC[C@]2(C)[C@@H]([C@@H](C)Cn4cc(C#N)cn4)CCC[C@@H]32)C1 [Example 3, 1-((R)-2-((1R,4aS,4bR,6aR,8R,10aS,10bR,12aS)-8-hydroxy-8-(methoxymethyl)-12a-methyloctadecahydrochrysen-1-yl)propyl)-1H-pyrazole-4-carbonitrile]	< 100
C[C@@H](Cn1cc(C#N)cn1)[C@H]1CCC[C@H]2[C@@H]3CC[C@@H]4C[C@](C)(O)CC[C@@H]4[C@H]3CC[C@]12C [Example 4, 1-((R)-2-((1R,4aS,4bR,6aR,8R,10aS,10bR,12aS)-8-hydroxy-8,12a-dimethyloctadecahydrochrysen-1-yl)propyl)-1H-pyrazole-4-carbonitrile]	< 100
CCC[C@@]1(O)CC[C@H]2[C@@H](CC[C@@H]3[C@@H]2CC[C@]2(C)[C@@H]([C@@H](C)Cn4nnc(C)n4)CCC[C@@H]32)C1 [Example 5, (2R,4aS,4bR,6aS,7R,10aS,10bR,12aS)-6a-methyl-7-((R)-1-(5-methyl-2H-tetrazol-2-yl)propan-2-yl)-2-propyloctadecahydrochrysen-2-ol]	100 to 1000
CCC[C@@]1(O)CC[C@H]2[C@@H](CC[C@@H]3[C@@H]2CC[C@]2(C)[C@@H]([C@H](C)Cn4nnnc4C)CCC[C@@H]32)C1 [Example 7, (2R,4aS,4bR,6aS,7R,10aS,10bR,12aS)-6a-methyl-7-((S)-1-(5-methyl-1H-tetrazol-1-yl)propan-2-yl)-2-propyloctadecahydrochrysen-2-ol]	≥ 1000
CCC[C@@]1(O)CC[C@H]2[C@@H](CC[C@@H]3[C@@H]2CC[C@]2(C)[C@@H]([C@@H](C)Cn4nnnc4C)CCC[C@@H]32)C1 [Example 8, (2R,4aS,4bR,6aS,7R,10aS,10bR,12aS)-6a-methyl-7-((R)-1-(5-methyl-1H-tetrazol-1-yl)propan-2-yl)-2-propyloctadecahydrochrysen-2-ol]	100 to 1000
CCC[C@@]1(O)CC[C@@]2(C)[C@@H](CC[C@@H]3[C@@H]2CC[C@]2(C)[C@@H]([C@@H](C)Cn4nnc(C)n4)CCC[C@@H]32)C1 [Example 9, (2R,4aS,4bS,6aS,7R,10aS,10bR,12aS)-4a,6a-dimethyl-7-((R)-1-(5-methyl-2H-tetrazol-2-yl)propan-2-yl)-2-propyloctadecahydrochrysen-2-ol]	100 to 1000
CCC[C@@]1(O)CC[C@@]2(C)[C@@H](CC[C@@H]3[C@@H]2CC[C@]2(C)[C@@H]([C@@H](C)Cn4nnnc4C)CCC[C@@H]32)C1 [Example 10, (2R,4aS,4bS,6aS,7R,10aS,10bR,12aS)-4a,6a-dimethyl-7-((R)-1-(5-methyl-1H-tetrazol-1-yl)propan-2-yl)-2-propyloctadecahydrochrysen-2-ol]	100 to 1000
C[C@@H]1CC[C@H]([C@@H](C)Cn2cc(C#N)cn2)[C@@]2(C)CC[C@H]3[C@@H](CC[C@@H]4C[C@](C)(O)CC[C@@H]43)[C@H]12 [Example 11, 1-((R)-2-((1R,4R,4aS,4bR,6aR,8R,10aS,10bR,12aR)-8-hydroxy-4,8,12a-trimethyloctadecahydrochrysen-1-yl)propyl)-1H-pyrazole-4-carbonitrile]	< 100
C[C@@H]1CC[C@H]([C@H](C)Cn2cc(C#N)cn2)[C@@]2(C)CC[C@H]3[C@@H](CC[C@@H]4C[C@](C)(O)CC[C@@H]43)[C@H]12 [Example 12, 1-((S)-2-((1R,4R,4aS,4bR,6aR,8R,10aS,10bR,12aR)-8-hydroxy-4,8,12a-trimethyloctadecahydrochrysen-1-yl)propyl)-1H-pyrazole-4-carbonitrile]	< 100
C[C@@H](Cn1cc(C#N)cn1)[C@H]1CC[C@H]2[C@@H]3CC=C4CC[C@](C)(O)CC[C@]4(C)[C@H]3CC[C@]12C [Example 17, 1-((R)-2-((1R,3aS,3bS,8S,10aR,10bS,12aS)-8-hydroxy-8,10a,12a-trimethyl-1,2,3,3a,3b,4,6,7,8,9,10,10a,10b,11,12,12a-hexadecahydrocyclohepta[a]cyclopenta[f]naphthalen-1-yl)propyl)-1H-pyrazole-4-carbonitrile]	< 100
C[C@H](Cn1cc(C#N)cn1)[C@H]1CC[C@H]2[C@@H]3CC=C4CC[C@](C)(O)CC[C@]4(C)[C@H]3CC[C@]12C [Example 18, 1-((S)-2-((1R,3aS,3bS,8S,10aR,10bS,12aS)-8-hydroxy-8,10a,12a-trimethyl-1,2,3,3a,3b,4,6,7,8,9,10,10a,10b,11,12,12a-hexadecahydrocyclohepta[a]cyclopenta[f]naphthalen-1-yl)propyl)-1H-pyrazole-4-carbonitrile]	< 100
C[C@@H](Cn1cc(C#N)cn1)[C@H]1CC[C@H]2[C@@H]3CC[C@H]4CC[C@](C)(O)CC[C@]4(C)[C@H]3CC[C@]12C [Example 19, 1-((R)-2-((1R,3aS,3bR,5aS,8S,10aS,10bS,12aS)-8-hydroxy-8,10a,12a-trimethyloctadecahydrocyclohepta[a]cyclopenta[f]naphthalen-1-yl)propyl)-1H-pyrazole-4-carbonitrile]	< 100
C[C@H](Cn1cc(C#N)cn1)[C@H]1CC[C@H]2[C@@H]3CC[C@H]4CC[C@](C)(O)CC[C@]4(C)[C@H]3CC[C@]12C [Example 20, 1-((S)-2-((1R,3aS,3bR,5aS,8S,10aS,10bS,12aS)-8-hydroxy-8,10a,12a-trimethyloctadecahydrocyclohepta[a]cyclopenta[f]naphthalen-1-yl)propyl)-1H-pyrazole-4-carbonitrile]	< 100
C[C@H](Cn1cc(C#N)cn1)[C@H]1CC[C@H]2[C@@H]3CC[C@@H]4C[C@](C)(O)CCC[C@@H]4[C@H]3CC[C@]12C [Example 22, 1-((S)-2-((1R,3aS,3bR,5aR,7R,10aS,10bR,12aS)-7-hydroxy-7,12a-dimethyloctadecahydrocyclohepta[a]cyclopenta[f]naphthalen-1-yl)propyl)-1H-pyrazole-4-carbonitrile]	< 100
CN(C[C@H]1CCC[C@H]2[C@@H]3CC[C@@H]4C[C@](C)(O)CC[C@@H]4[C@H]3CC[C@]12C)C(=O)c1ccccc1 [Example 23, N-(((1S,4aS,4bR,6aR,8R,10aS,10bR,12aS)-8-hydroxy-8,12a-dimethyloctadecahydrochrysen-1-yl)-methyl)-N-methylbenzamide]	100 to 1000
C[C@@]1(O)CC[C@H]2[C@H](CC[C@@H]3[C@@H]2CC[C@]2(C)[C@@H](CNC(=O)c4ccccc4)CCC[C@@H]32)C1 [Example 24, N-(((1S,4aS,4bR6aR,8R,10aS,10bR,12aS)-8-hydroxy-8,12a-dimethyloctadecahydrochrysen-1-yl)methyl)benzamide]	100 to 1000
C[C@@]1(O)CC[C@H]2[C@H](CC[C@@H]3[C@@H]2CC[C@]2(C)[C@@H](CNS(=O)(=O)c4ccccc4)CCC[C@@H]32)C1 [Example 25, N-(((1S,4aS,4bR,6aR,8R,10aS,10bR,12aS)-8-hydroxy-8,12a-dimethyloctadecahydrochrysen-1-yl)methyl)benzenesulfonamide]	< 100
CN(C[C@H]1CCC[C@H]2[C@@H]3CC[C@@H]4C[C@](C)(O)CC[C@@H]4[C@H]3CC[C@]12C)S(=O)(=O)c1ccccc1 [Example 26, N-(((1S,4aS,4bR,6aR,8R,10aS,10bR,12aS)-8-hydroxy-8,12a-dimethyloctadecahydrochrysen-1-yl)methyl)-N-methylbenzenesulfonamide]	< 100
